Experiments:
[1] = system: human peripheral blood mononuclear cells (PBMC); assay: Respiratory burst (hydrogen peroxide generation) in human PBMC; format: cell-based; conditions: alone and in response to PMA; 4 hours exposure; five donors
Experimental: (§1) The respiratory burst of leukocytes (macrophages and polymorphonuclear neutrophils) is one component of the mediator system used to kill bacteria. As with phagocytosis, the level of this respiratory burst activity in resident macrophages is low. […] Studies were conducted to assess the effect of in vitro exposure of murine or rat peritoneal macrophages and human peripheral blood mononuclear cells (PBMC) to various concentrations of AII on the capacity to generate hydrogen peroxide via the respiratory burst system. For the human studies, five different donors were examined.
(§2) The murine or rat peritoneal cells were harvested by lavage with 5-15 ml of cold PBS with 0.5% bovine serum albumin. The human PBMC were harvested by venipuncture from normal human volunteers and isolated from peripheral blood by Ficoll Hypaque density centrifugation. After isolation, the cells were resuspended at 1×10^6 cells/ml and placed at 100 μl per well into 96 well plates. The cells were incubated with various concentrations of AII or AII analogues and fragments for 4 hours at 37° C. The cells were then preloaded with a fluorescent probe for hydrogen peroxide, 2,7 dichlorofluorescein acetate, which is nonfluorescent in the absence of hydrogen peroxide. Fifteen minutes later, 10 ng/ml of phorbol myristate acetate (+PMA) or PBS (−PMA) was added to stimulate the production of hydrogen peroxide. One hour after stimulation the level of fluorescence produced was measured on a Cytofluor 2350 multiwell fluorometer.

[2] = system: murine mesenchymal stem cells; assay: GM-CSF secretion by mouse mesenchymal stem cells (ELISA); format: cell-based, C57B1/6 mice; conditions: 0.01 to 100 μg/ml; 24, 48 or 72 hours
Experimental: One factor whose production is induced during differentiation of mesenchymal stromal cells is granulocyte-macrophage-colony stimulating factor (GM-CSF). Therefore, the effect of AII on the differentiation of mesenchymal cells was assessed by the production of colony stimulating factors, specifically GM-CSF, into the culture supernatant.
Bone marrow cells were harvested from the femur and tibia of C57B1/6 mice (Battin and Kingdom, Gilroy, Calif.) with saline containing 2% fetal calf serum. Thereafter, the red blood cells were lysed by brief exposure to a hypotonic ammonium chloride solution. The nucleated cells were then resuspended in 3 ml of […] phosphate buffered saline (PBS; pH 7.2) and rapidly layered over 7 ml of Percoll (70% Percoll gradient separation). This combination of nucleated bone marrow cells and Percoll were centrifuged at 1800 rpm for 20 minutes. After centrifugation, the cells in the upper 25% of the Percoll gradient were harvested and washed 3 times with PBS to remove excess Percoll. The cells were then resuspended at 4×10^5 cells/ml in alpha minimal essential medium containing 10% horse serum, 10% fetal calf serum and 5×10^−5 M 2-mercaptoethanol. […]
After all samples were collected, the level of GM-CSF in the supernatant was measured by Quantikine ELISA (R & D Systems, Minneapolis, Minn.) according to the manufacturer's instructions.

[3] = system: murine peritoneal macrophages; assay: Respiratory burst (hydrogen peroxide generation) in murine peritoneal macrophages; format: cell-based; conditions: alone and in response to PMA; 4 hours exposure
Experimental: as §1
as §2, with “Fifteen minutes later, 10 ng/ml of phorbol myristate acetate (+PMA) or PBS (−PMA) was added to stimulate the production of hydrogen peroxide.” left out

human PBMC = assay: Proliferative response of human lymphocytes (3H-thymidine incorporation); format: cell-based; conditions: absence of mitogen
Experimental: Upon stimulation of lymphocytes with mitogen or antigen, these cells undergo blastogenesis and proliferation. In the absence of such stimuli, proliferation is seldom observed. One method to measure cellular proliferation in a short term assay is via measurement of the amount of the nucleotide thymidine that is incorporated into newly synthesized DNA. The effect of All on the proliferation of human PBMC in the presence and absence of pokeweed mitogen (“PWM”) was assessed.
Human PBMC were collected from normal volunteers and isolated via Ficoll Hypaque (Sigma Chemical, St. Louis) density centrifugation. After isolation of the buffy coat, the cells were washed 3× to remove the Ficoll Hypaque, counted in trypan blue (0.01%) and resuspended at a concentration of 1×10^6 cells/ml in RPMI 1640 containing 10% fetal calf serum and antibiotics. A 100 μl aliquot of cells was added to each well. Thereafter, various concentrations (0.1 to 1000 μg/ml final concentration) of AII in RPMI 1640 containing 10% FCS and antibiotics were added to various wells in triplicate. To the appropriate wells, PWM (20 μg/ml final concentration) was added. These plates were incubated at 37° C. in 5% CO2 for 48 hours. […] These filters were dried, placed in scintillation fluid and the amount of thymidine incorporated was determined by beta counting.

“Asp-Arg-Val-Tyr-Ile-His-Pro-Phe (DRVYIHPF; printed: Asp-Arg-Val-Tyr-Ile-His-Pro-Phe) [AII, octapeptide present in humans and other species; known pressor agent, commercially available]” was tested, and the “ability of leukocytes to generate hydrogen peroxide” value [1] was “increased the ability of leukocytes to generate hydrogen peroxide both alone and in response to stimulation with PMA”, the “production of GM-CSF” value [2] was “induced an increase” and the “ability of leukocytes to generate hydrogen peroxide” value [3] was “increased the ability of leukocytes to generate hydrogen peroxide both alone and in response to stimulation with PMA”. For the same substance, the thymidine incorporation (human PBMC) was “no increase”.
